In patent US7557116B2, “Substance which exhibits antiviral and antibacterial activity and is based on derivatives of 2,8-dithioxo-1H-pyrano[2,3d 6,5-d′]dipyrimidyne and 10-aza-analogue thereof” (priority 2003, dated 2009):

What was measured:
Format in all cases: cell-based
[1] = tested on: Chlamydia trachomatis D323; test: Protection of cell culture from Chlamydia trachomatis (immunofluorescence, cytoplasmatic inclusions)
Description: The antiviral activity of the claimed compounds were also all tested against the Chlemydia trachomatis. The effects of the claimed compounds on the Chlamydia trachomatis are charted in TABLE 4. A relative strain of Chlamydia trachomatis D323 was used to test the claimed compounds. The strain, derived from a patient with Chlamydia urethritis, comprised a morphology and a physiological activity characteristic of and representative of that type. An infection dose of Chlamydia having a concentration of 1/10^6 cells/ml was introduced into a cell culture. Immunofluorescence (MicroTrack Chlamydia trachomatis Direct Specimen Test) was conducted to determine the significance of the chlamydial cytoplasmatic inclusions (CPI). A CylaMonoScreen was conducted to obtain the chlamydia antigens. The monolayer state and the number of cells with CPI were compared to the control to determine the effects the claimed compounds have on the chlamydia. The number of unchanged cells in 100 visual fields were counted utilizing a special net on a microscopic eyepiece.

Influenza virus A = settings: Influenza virus A; 48 hours at 33-34 C; ineffective when IN less than 1.0
Influenza virus B = settings: Influenza virus B; 72 hours at 33-34 C; ineffective when IN less than 1.0
[2] = tested on: Human Immunodeficiency Virus Type 1; test: Anti-HIV activity: protection of MT4 T-lymphoblastoid cells (IFA); settings: read-out: Level of inhibition of virus reproduction
Description: (§1) Activity against the Human immunodeficiency Virus (HIV) was also determined and, more specifically, the compounds antiviral effectiveness in protecting the T-lymphoblastoid cells MT4 from being infected by the virus-containing liquid of HTHIV27 cultures. The cells infected by the virus were analyzed according to the following methods: (1) An indirect immunofluorescence (IFA) with a polyclonal anti-serum was received from an HIV Infected human (the antibody titer in the IFA was 1:1000000) and, (2) A competitive IFA was utilized with monoclonal antibodies (MonAb) to p24 HIV and a polyclonal substrate. A solution of 1:540 was used in the tests. Azidothymidin (AZT) was used as the control.
The results documented in the table shown in TABLE 6 evidence that the compounds tested inhibit the reproduction of the Human Immunodeficiency Virus Type 1.

[3] = tested on: Human Immunodeficiency Virus; test: Anti-HIV activity alone and in combination with azidothymidin in MT4 cells; settings: read-out: Level of inhibition of virus reproduction
Description: as §1, with “[…] The methods utilized to analyze the compounds effectiveness were the same” for “Azidothymidin (AZT) was used”, “foregoing methods.” for “control.”

O=[N+]([O-])c1ccc(C2c3c(O)nc(=S)[nH]c3Oc3[nH]c(=S)nc(Cl)c32)cc1 (stereo not drawn) [Ib, 4-chlorine-6-hydroxi-5-(4-nitrophenyl)-5,9-dihydro-1H-pyrano[2,3-d: 6,5-d′]dipyrimidine-2,8-dition]
Percentage of cells' defense from C. trachomatis ([1]; compound 30 mg/l): 60% | Percentage of cells' defense from C. trachomatis ([1]; compound 100 mg/l): 80% | Index of neutralization (Influenza virus A): 0.5 | Index of neutralization (Influenza virus B): 0.5 | inhibition at 5 µg/mL ([2]; Human immunodeficiency virus 1, 5 mg/l): 70% | inhibition at 50 µg/mL ([2]; Human immunodeficiency virus 1, 50 mg/l): 90% | inhibition at 100 µg/mL ([2]; Human immunodeficiency virus 1, 100 mg/l): 100% | inhibition at 0.5 µg/mL ([3]; Human immunodeficiency virus 1, 0.5 mg/l): 20% | inhibition at 5 µg/mL ([3]; Human immunodeficiency virus 1, 5.0 mg/l): 70%
